In the METLIN SMRT retention time set (Domingo-Almenara et al. 2019):

Assay: gradient 5% acetonitrile 3 min, to 50% in 2 min, to 85% in 15 min, held 3 min, 100 µL/min
Conditions: column: Zorbax Extend-C18 2.1 x 50 mm; eluents: water / acetonitrile, 0.1% formic acid
Method in brief: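 Using water and acetonitrile that each contained 0.1% formic acid, mixtures of ~100 pure standards were separated at 100 μL/min on a Zorbax Extend-C18 column (2.1 × 50 mm, 1.8 μm). The HPLC fed a quadrupole time-of-flight mass spectrometer working in positive and negative ionization mode, with dead and dwell volumes of 40 μL and 900 μL. Data were acquired over 3 months. Retention time was read from computationally picked adduct peaks after manual inspection of each.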

RP-LC retention time [s] | SMILES
571 | Cc1ccc2c(C(=O)N3CCN(Cc4ccccc4)CC3)cc(NC(=O)C(C)C)cc2n1
847 | CC(C)CNC(=O)CCc1nc2ccccc2n(CC(=O)NCc2ccccc2Br)c1=O
732 | COc1ccc(CNC2=NCCNC23CCN(S(=O)(=O)c2ccc(C)cc2)CC3)cc1
1030 | COc1ccccc1-c1nc(COc2cc(C)c3c(C)nn(C)c3n2)c(C)o1
868 | Cc1ccc(CNC(=O)Cn2c(=O)c3cc(-c4cccs4)nn3c3ncccc32)cc1
865 | O=C(NCc1cccc(Cl)c1)C1CCN(c2nnc(-c3ccccc3)o2)CC1
590 | Cc1ccccc1NC(=O)Nc1cccnc1N(C)C
1140 | C=CCn1c(=O)c2ccccc2n(Cc2nc(-c3cccc(Br)c3)no2)c1=O
766 | COCCNc1oc(-c2ccc([N+](=O)[O-])cc2)nc1C#N
1150 | CCOc1ccc(-c2cc3c(=O)n(Cc4nc(-c5ccc(OCC)c(OC)c5)no4)ncn3n2)cc1
822 | Cc1ccc(-c2nnc(Cc3nc(-c4ccccn4)no3)o2)cc1F
973 | Cc1nn2c(CNS(=O)(=O)c3ccc(Cl)cc3C)c(-c3ccccc3)nc2s1
806 | CC(=O)Nc1cc2c(cc1Sc1ccc(Cl)cc1)n(C)c(=O)n2C
714 | CCC1CCCCN1CCCNC(=O)C1CCCN(c2nccnc2Sc2ccccc2)C1 (stereo not given)
990 | Cn1nc(-c2nnc(-c3ccccc3F)o2)c2c1CCN(S(=O)(=O)c1ccc(F)c(Cl)c1)C2
850 | COc1ccc2[nH]cc(CCNC(=O)CCC(=O)N3Cc4cccn4-c4ccccc43)c2c1
1160 | CCCSCCCNc1nc(-c2nnc(-c3ccc(C)cc3)o2)nc2ccccc12
957 | CCOC(=O)COc1ccccc1C1C(C(=O)OC)=C(C)NC2=C1C(=O)c1ccccc12 (stereo not given)
981 | Cc1cc2nn(CC(=O)Nc3cccc(F)c3)c(=O)n2c(Nc2ccc(F)cc2)n1
780 | CNC(=O)c1cnn(-c2ccc(-c3nc(C(C)C)no3)cn2)c1C
607 | COc1cc(C)c(C)cc1S(=O)(=O)Nc1cccc(-c2ccc(N3CCCC3)nn2)c1
842 | CCc1ccc(CNC(=O)C2CCN(c3ncnc4c3oc3ccccc34)CC2)cc1
1010 | Cc1cc(-c2nnc(-c3ccccc3)o2)c(C)n1CC(=O)Nc1ccc(F)c(F)c1
588 | CCOC(=O)c1nc(NCCCN2CCN(Cc3ccccc3)CC2)c2ccccc2n1
686 | O=C(Nc1ccc2nc3n(c(=O)c2c1)CCC3)Nc1ccc(F)cc1F
626 | CCc1ccc2[nH]c3c(c(=O)c2c1)CN(CC(=O)NCc1ccc(F)cc1)CC3

RP-LC retention time [s] | SMILES
620 | COCC(=O)Nc1cc(-c2nc3ccc(C)cc3[nH]2)ccc1C
840 | COC(=O)C(C)n1cccc1-c1nc(-c2ccncc2)no1 (stereo not given)
1320 | CCCN(CCC)c1nc2cc(C(=O)OC)ccc2c(=O)n1-c1ccccc1
734 | Cc1noc(C)c1CC(=O)NCc1cccnc1Oc1ccccc1
892 | CCn1cc(S(=O)(=O)Nc2cc(C)ccc2C)c2cccnc21
603 | CCCc1nc2cccnc2n1C1CCN(C(=O)NCc2ccccc2)C1 (stereo not given)
730 | CCOc1ccccc1NC(=O)CSc1nnc(-c2cccnc2)o1
725 | CCOc1ccc(C(=O)NC2CCN(c3cc(-c4ccc(OC)cc4)[nH]n3)C2)cc1 (stereo not given)
756 | CC(C)c1ccc(-c2c(N3CCN(c4ccccn4)CC3)c(=O)c2=O)cc1
796 | O=C(NC(c1ccccc1)c1nnc(N2CCOCC2)o1)c1cccc(Cl)c1 (stereo not given)
603 | CC(C(=O)NCCCN1CCN(C)CC1)n1c(=O)c(C(F)(F)F)nc2ccccc21 (stereo not given)
880 | O=C(NCCc1ccccc1)c1cn2c3c(ccc(Cl)c3c1=O)OCC2
583 | O=C(Cn1cnc(-c2cccs2)cc1=O)NCCOc1ccc(-c2ccco2)nn1
754 | CCn1cnc2ccc(-c3noc(COc4ccc(F)cc4)n3)cc21
1430 | Cc1cc(C)cc(NC(=O)c2c(O)c3cccnc3n(-c3ccccc3)c2=O)c1
884 | CCC(C)NC(=O)CCn1c(=O)c2ccccc2n2c(=O)n(Cc3ccccc3F)nc12 (stereo not given)
1180 | COc1ccc(CNC(=O)N2c3ccccc3CC2c2nc(C3CC3)no2)cc1 (stereo not given)
1000 | Cc1cc(C)n(Cc2nc(-c3ccc(NC(=O)C4CCCCC4)cc3)oc2C)n1
630 | C=CCc1cc(C)ccc1OCC(O)Cn1cnc2ccccc21 (stereo not given)
627 | CN(C(=O)Cn1nc(Cc2ccncc2)c2ccccc2c1=O)c1ccccc1Cl
790 | CCc1noc(NC(C)=O)c1-c1ccc(OC)c(S(=O)(=O)Nc2c(C)cccc2C)c1
724 | Cc1ccc(OCC(O)Cn2c(C3CC3)nc3ccccc32)cc1C (stereo not given)
1000 | COc1ccccc1NC(=O)N1CCCC1c1nc(-c2ccc(F)cc2F)no1 (stereo not given)
890 | O=C(Cc1ccsc1)Nc1cnc(-c2ccccc2)nc1
660 | CC(=O)Nc1cccc(-c2nc(-c3ccc4ncn(C(C)C)c4c3)no2)c1
955 | COc1cc(NC(=O)Nc2nccn(-c3ccc(C)c(C)c3)c2=O)cc(OC)c1

More lines, now with the values behind:

SMILES | RP-LC retention time [s]
COc1ccc(CN2C(=O)C3(CCOCC3)CC2c2nnnn2C(C)(C)C)cc1 (stereo not given) | 760
COc1ccc(C2CCCN2C(=O)c2ccn(C)n2)cc1 (stereo not given) | 730
COC(=O)c1cc(S(=O)(=O)N2CCCC2C(=O)NCc2ccccc2Cl)cn1C (stereo not given) | 845
CCC1CN(C(=O)N2CCC(C(=O)NCCCN3CCCC3)CC2)c2ccccc2O1 (stereo not given) | 627
Cc1nc([C@@H]2CN(C(=O)c3cccn3C)C[C@H]2C(N)=O)n[nH]1 | 576
Cc1cnc(CC2CCN(S(=O)(=O)c3ccc(C#N)cc3)C2)n1C1CC1 (stereo not given) | 654
O=C(NCc1ccccc1C(F)(F)F)c1cn2c(n1)CCCC2 | 640
CN(C)C1CCc2[nH]c3c(F)cc(F)cc3c2C1 (stereo not given) | 685
O=C(N[C@@H]1CN(Cc2ccccn2)C[C@H]1CO)C1(c2ccccc2)CC1 | 608
COc1ccc(CNC(=O)CN2C(=O)C3CCCCN3c3ccc(C(=O)N(C)C)cc32)c(OC)c1 (stereo not given) | 756
CSc1ccc(NC(=O)N2CCN(c3cnn4c(C5CC5)nnc4c3)CC2)cc1 | 668
CC(C)c1c(C(=O)O)nnn1Cc1ccccc1 | 720
Cc1ccc(NC(=O)NCC2CCOCC2)cc1F | 710
Cc1nc(-c2cc(S(=O)(=O)Nc3ccc(Br)cc3F)c(C)s2)cs1 | 1070
COC(=O)CCCC(=O)Nc1ccc2[nH]c(=O)oc2c1 | 608
Cc1ccc(-c2[nH]ncc2CN2CC(F)(F)C[C@H]2CN2CCOCC2)cc1C | 654
O=C(CN1CCN(Cc2ccc(F)cc2)C1=O)NCc1ccc(F)cc1F | 809
COc1cccc(Cn2c(C(=O)N3CCC(C(=O)NCC4CCCCC4)CC3)cc3ccsc32)c1 | 1090
Cc1nc(C)c(C(=O)Nc2ccc(F)cc2Cl)s1 | 820

SMILES | RP-LC retention time [s]
COc1ccc2c(ccn2CC(=O)N[C@@H](CC(C)C)C(=O)O)c1 | 756
CC(=O)N1c2ccc(S(=O)(=O)N3CCC(C(=O)NC(C)c4ccccc4)CC3)cc2CC1C (stereo not given) | 733
CCCNC(=O)c1n[nH]c2c1CCCCCC2 | 776
O=C(Nc1ccc(Cl)cc1)C1CCc2nc(N3CCOCC3)ncc2C1 (stereo not given) | 757
CC(C)N1CCc2c(sc(NC(=O)COc3ccc(Cl)cc3Cl)c2C(N)=O)C1 | 598
Cc1ccc(NC(=O)C2CCCN2S(=O)(=O)c2cc3c(cc2C)NC(=O)CO3)cc1F (stereo not given) | 808
CC1(CNC(=O)NCCc2ccccc2)CCOCC1 | 696
CN1CCCc2cc(C(=O)NCc3ccc(F)cc3)sc21 | 906
Cc1ccc(C)c(Cn2nc3ccc(S(=O)(=O)N4CCCC4)cn3c2=O)c1 | 915
CC(C)CN(Cc1cccnc1)C1CN(S(=O)(=O)c2cccnc2)C1 | 645
Cc1ccc(C(=O)N2CC(n3cc(COCC4CC4)nn3)C2)c(=O)[nH]1 | 595
COc1ccc(C(=O)N2CCCC2c2cc(C)on2)cc1OC (stereo not given) | 655
CCn1ccc(C(=O)N2CC(c3nc(C4CC4)no3)C3(CCN(C)CC3)C2)n1 (stereo not given) | 586
CC(C)n1ncc(NC(=O)c2ccc(F)cc2)c(N2CCOCC2)c1=O | 883
CC(C)c1cccc(NC(=O)C2CCCN(c3cn[nH]c(=O)c3)C2)c1 (stereo not given) | 692
Cc1ccccc1-c1csc2c(=O)n(CC(=O)OC(C)(C)C)cnc12 | 1060
Cc1nn(CC(=O)N2CCCC2)c(=O)c2c(-n3cccc3)n(-c3cccc(F)c3)nc12 | 876
Cn1nnc2c(N3CCN(C(=O)Nc4ccccc4C#N)CC3)ncnc21 | 626
CC(C)NC(=O)c1cc2nc(N(C)C)n(-c3ccc(F)cc3)c2s1 | 627
